One compound from patent publication US11179358B2, “Compound for use in the prevention and treatment of neurodegenerative diseases” (Universität Wien, priority 2015, dated 2021) can be followed below.

“Also recorded” adds a separate entry of the source.

One series deals with Lcn2 (Homo sapiens, UniProt P80188). The series is described as follows: Isothermal titration calorimetry of Sulfocalixarene binding to Lcn2. To be noted: ITC, 25° C., 20 mM Tris pH 7.4, 50 mM NaCl, single binding site. The method, then:
Isothermal Titration Calorimetry (ITC)—Binding of free and bound Sulfocalixarene to Lcn2 was determined by ITC using a Microcal ITC200 microcalorimeter. Experiments were carried out at 25° C. in 20 mM Tris pH 7.4, 50 mM NaCl. The reference cell contained Milli Q water. The concentration of Lcn2 in the reaction cell was 50 μM. The concentration of Sulfocalixarene in the syringe was 500 μM. The titration consisted in 19 successive injections of 4 μL, with a stirring speed of 800 rpm, separated by intervals of 300 s. Data analysis was done with the Origin software assuming a single binding site.
FIG. 7 illustrates a biophysical characterization of the Sulfocalixarene binding to soluble Lcn2. (top). Overlay of ^1H-^15N HSQC spectra for Lcn2 without (red) and with Sulfocalixarene (blue). Changes of cross peak frequencies (positions) indicate residues which are affected upon binding. (bottom) Isothermal titration calorimetry traces of Sulfocalixarene binding to Lcn2. Sulfocalixarene binds to Lcn2 with a KD of about 700 nM.

Series [1] deals with RA/PMA differentiated SH-SY5Y cells. The series is described as follows: Sulfocalixarene protection against MPP+ and H2O2 cytotoxicity. The series is classed as cell-based, human. To be noted: Sulfocalixarene 500 μM and 100 μM. The method, then:
(§1) FIG. 11: Sulfocalixarene protection against Lcn2/NGAL cytotoxicity. A. SH-SY5Y RA/PMA differentiated cells were treated for 24 and 48 hours with two lethal concentrations of Lcn2/NGAL (100 μg/ml and 200 μg/ml). Cells were challenged with increasing concentration of Sulfocalixarene and assessed for MTT and phase contrast microscopy analyses. B. SH-SY5Y RA/PMA differentiated cells were treated for 24 and 48 hours with two lethal concentrations of MPP+ (0.5 mM and 10 mM). Cells were challenged with increasing concentration of Sulfocalixarene and assessed for MTT and phase contrast microscopy analyses.
FIG. 12: Sulfocalixarene protection against MPP+ and H2O2 cytotoxicity. Representative phase-contrast microscope images of RA/PMA differentiated SH-SY5Y cells, scale bar 100 μm.
Furthermore, it was shown that Sulfocalixarene protected against MPP+ (a substrate for the dopamine transporter that is taken up selectively into dopaminergic neurons where it inhibits Complex I of the mitochondrial electron transport chain) and H2O2 stress in human differentiated SH-SY5Y cells. Oxidative stress and mitochondrial damage have been implicated in the pathogenesis of several neurodegenerative diseases.

The target of a further series is α-synuclein (Homo sapiens, UniProt P37840). In words: NMR probing of interaction between α-synuclein and Sulfocalixarene, with and without POPG liposomes. The class given is binding. The method, then: POPG was ordered from Avantis Polar Lipids as a stock of 5 mg/ml dissolved in chloroform. The stock solution was aliquotted in glass vials, most chloroform was evaporated under nitrogen flow and the sample was then dried under vacuum for a minimum of 45 min. POPG was dissolved in the desired buffer to 1 mg/ml, kept at RT for 1 hr and subjected to 3 freeze-thaw cycles for complete solvation. The suspension was sonicated in a bath sonicator for 5 min and cycled through an extruder (Avanti® mini-Extruder) equipped with a 0.4 μm membrane for 20 times.
To allow for high concentration measurements, the resulting solution was centrifuged at 200,000×g for 10 min, 75% of the supernatant were discarded and the pellet was resuspended in the remaining 25% yielding a solution of 4 mg/ml POPG. This solution was frozen in aliquots before being used in further measurements. […]
For all NMR-measurements the protein was dialyzed into 20 mM phosphate, pH=7.4, 100 mM NaCl. […] NMR-Spectra were recorded on Varian Direct Drive 600 MHz and Varian Inova 800 MHz spectrometers with 10% D2O as lock solvent. […] Resonance assignment at near physiological conditions was readily available from a previous publication (J. N. Rao, Y. E. Kim, L. S. Park, T. S. Ulmer, Effect of pseudorepeat rearrangement on alpha-synuclein misfolding, vesicle binding, and micelle binding. J Mol Biol 390, 516-529 (2009)) (BMRB ID 16300). […]

The test system of series [2] is transgenic animal models for Parkinson Disease (PD). The series is described as follows: Immunostaining of cortex in transgenic animal models for Parkinson Disease and healthy controls. The class given is in vivo, mice. From the text: FIG. 3: Quantification of the neuronal-immunostaining experiments. Total area, average size and % area are different computational strategies to quantify the number of neurons (however, leading to the same results).
FIG. 4: Immunostaining of astrocytes in healthy (control) and transgenic animals (PD). […] The numbers given for the transgenic animal models are average numbers (and standard deviation) of astrocytes obtained for different animals and cortex regions.
FIG. 6: Quantification of α-synuclein aggregates.

Series [3] deals with RA/PMA differentiated SH-SY5Y cells. In words: Sulfocalixarene protection against Lcn2/NGAL cytotoxicity. The series is classed as cell-based. The note with it: human differentiated SH-SY5Y neuroblastoma cells. The method, then:
as §1
To further study the effect of the compound in neuronal cellular cultures, a cytotoxicity assay was developed using the human Neuroblastoma SH-SY5Y cell line as an in vitro model for dopaminergic neurons. First, it was shown that RA-PMA terminally differentiated SH-SY5Y cells are sensitive to Lcn2/NGAL cytotoxicity in a dose dependent manner. Moreover, in the presence of reactive oxygen species (ROS) triggered by H2O2 the Lcn2/NGAL cytotoxicity is stronger. Second, it could be shown that SH-SY5Y terminally differentiated cells express ˜5× more the Lcn2/NGAL cognate receptor (SLC22A17) on the plasma membrane.

For series [4], the system named is transgenic (tg) animals Line 61. In words: Pasta Gnawing Test. The class given is in vivo, mice. The method, then:
FIG. 13: Pasta Gnawing. The Pasta Gnawing Test is a stress-free behavioral experiment for evaluation of motor deficits in rodents. During the test, the gnawing noises of the animals while eating a piece of dry pasta are recorded. Parameters such as biting speed and number of bites/chewing episode are evaluated.
Data are shown as mean±SEM. Statistics 1-Way-Anova. Statistically significant group differences are indicated with asterisks (for One Way Anova) and hashtag (for t-test); *p<0.05; **p<0.01; #p<0.05.

Lcn2, sequence (P80188 21-198): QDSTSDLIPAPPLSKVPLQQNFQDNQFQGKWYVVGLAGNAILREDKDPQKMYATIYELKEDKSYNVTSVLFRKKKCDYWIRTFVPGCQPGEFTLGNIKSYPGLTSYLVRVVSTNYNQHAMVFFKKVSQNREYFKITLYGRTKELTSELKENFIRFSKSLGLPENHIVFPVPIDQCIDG

A word on the Kd: it is the constant that tells how readily two partners part at equilibrium. Consider `O=S(=O)(O)c1cc2c(O)c(c1)Cc1cc(S(=O)(=O)O)cc(c1O)Cc1cc(S(=O)(=O)O)cc(c1O)Cc1cc(S(=O)(=O)O)cc(c1O)C2` [Sulfocalixarene, 4-sulfocalix[4]arene], for which, on Lcn2, the dissociation constant Kd was around 700 nM. Besides, in series [1], the “cell viability reduction induced by H2O2” value was “attenuates the reduction of cell viability” and the “cell viability reduction induced by MPP+” value is on record as “attenuates the reduction of cell viability”. For the same compound, at α-synuclein (monomeric (soluble) α-Synuclein), the “location of binding site on α-synuclein (NMR chemical shift changes)” value is listed as “N-terminal domain of α-synuclein; also recorded: N-terminal part of α-Synuclein; also recorded: N-terminal domain (1-40)”. Further, the “release of α-syn from POPG liposomes (NMR signal intensity ratio)” value at α-synuclein (α-syn (120 µM) with POPG-liposomes (0.8 mg/ml)) is given as “partly releases α-syn from the liposomes”. In addition, the number of astrocytes entry in series [2] (healthy control animals) is reported as “unaffected”. Besides, in series [2] (transgenic animal models for PD), the “number of neurons in the cortex” value is “increase of the number of neurons in the cortex”. The “pathological α-synuclein aggregates” value in series [2] (transgenic animals (PD)) is recorded as “reduction of pathological α-synuclein aggregates; also recorded: significant reduction of α-synuclein aggregates”. The number of astrocytes result in series [2] (transgenic animals (PD), cortex) was “increase of the number of (presumably neurotrophic quiescent) astrocytes”. In series [3], the “neuroprotection against Lcn2/NGAL cytotoxicity” value was “has neuroprotection properties against the cytotoxic protein Lcn2/NGAL”. For the same compound, the bites per episode entry in series [4] (day 28, tg Line 61, versus tg animals treated with vehicle) is recorded as “significant more bites per episode”. Also, in series [4] (tg Line 61, versus tg animals treated with vehicle), the biting speed entry is “more biting speed”.
